Columns and labels:
[1] = system: incision wound; assay: Incised wound healing test in rats; assay type: in vivo, SD rats; conditions: 1% ointment, 0.2 g/day for 4 days; four days after incision
Excerpt: SD rats (male, 12-week-old) were clipped of hairs and divided into groups of 10 animals to make the mean body weights of the groups roughly the same, and subjected to the test. Each animal was given an incision wound along the median line under diethyl ether anesthesia. The incision wound was stapled at three sites using Michel's clips, and a 1% oxidized coenzyme Q10 ointment or a 1% reduced coenzyme Q10 ointment was applied at a dose of 0.2 g/day for 4 days. Two control groups, namely a nontreated group and an ointment base group treated with the same dose of the ointment base, were used. Three days after incision, the Michel's clips were removed and, four days after incision, each animal was euthanized by overanesthesia with diethyl ether, the skin around the incision was peeled off, and skin sections were prepared. The skin sections were measured for tension on a tensile tester.

[2] = Percutaneous absorption test (coenzyme Q10 in skin after dermal application); assay type: in vivo, hairless rats; conditions: for Coenzyme Q10 concentration in skin / Reduced coenzyme Q10 concentration in skin: mean ± SD
Procedure: The test sample 1 and comparative sample 1 were used as test substances. The test was carried out using male hairless rats (weighing 250 to 300 g) fed under well-fed conditions. A 0.1-g portion of the test sample 1, comparative sample 1, or PEG 1500 as a control was applied to an area of 3 cm square on the back of each hairless rat lightly anesthetized with ether. Three hours, 8 hours or 24 hours after application, the rat was sacrificed by euthanasia, the applied area was washed thoroughly, and a skin sample was taken. The skin sample was homogenized and extracted with propanol, the extract was concentrated using a solid phase column, and the amount of coenzyme Q10 in the skin was determined by high-performance liquid chromatography.
Each of the skin samples mentioned above was homogenized and extracted with hexane, the extract was evaporated to dryness and dissolved in ethanol, and the proportion of reduced coenzyme Q10 in skin was determined by high-performance liquid chromatography with an electrochemical detector. Each numerical value means the mean±standard deviation.
The test was carried out in the same manner as in Example 1 using the test samples 2, 3, 4 and 5 as well as the comparative sample 1 as test samples.
In FIG. 1, the vertical axis denotes the total amount of coenzyme Q10 and the amount of reduced coenzyme Q10 in skin at 3 hours after application, and the horizontal axis denotes the content (% by weight) of reduced coenzyme Q10 relative to the total amount of coenzyme Q10 in the sample applied. Each bar indicates the mean value.

[3] = as compared with 100% oxidized coenzyme Q10

Row | Structure (SMILES) | Skin repair (tension of skin sections on a tensile tester, in words) [1] | Coenzyme Q10 concentration in skin, relative value in parentheses (oxidized coenzyme Q10 = 100) ([2]; 3 hr) | Reduced coenzyme Q10 concentration in skin, relative value in parentheses (oxidized coenzyme Q10 = 100) ([2]; 3 hr) | Coenzyme Q10 concentration in skin ([2]; 3 hr after application of 0.1 g PEG 1500 ointment (0.1 g coenzyme Q10 per 10 ml) to 3 cm square back skin) [µg/g] | Reduced coenzyme Q10 concentration in skin ([2]; 3 hr after application, HPLC with electrochemical detector) [µg/g] | Coenzyme Q10 concentration in skin, relative value in parentheses (oxidized coenzyme Q10 = 100) ([2]; 8 hr) | Reduced coenzyme Q10 concentration in skin, relative value in parentheses (oxidized coenzyme Q10 = 100) ([2]; 8 hr) | Coenzyme Q10 concentration in skin ([2]; 8 hr after application of 0.1 g PEG 1500 ointment to back skin) [µg/g] | Reduced coenzyme Q10 concentration in skin ([2]; 8 hr after application) [µg/g] | Coenzyme Q10 concentration in skin, relative value in parentheses (oxidized coenzyme Q10 = 100) ([2]; 24 hr) | Reduced coenzyme Q10 concentration in skin, relative value in parentheses (oxidized coenzyme Q10 = 100) ([2]; 24 hr) | Coenzyme Q10 concentration in skin ([2]; 24 hr after application of 0.1 g PEG 1500 ointment to back skin) [µg/g] | Reduced coenzyme Q10 concentration in skin ([2]; 24 hr after application) [µg/g] | Increase of the amount of coenzyme Q10 in skin (in words) [2, 3] | Increase of the amount of reduced coenzyme Q10 in skin (in words) [2, 3]
1 | COC1=C(OC)C(=O)C(C/C=C(\C)CC/C=C(\C)CC/C=C(\C)CC/C=C(\C)CC/C=C(\C)CC/C=C(\C)CC/C=C(\C)CC/C=C(\C)CC/C=C(\C)CCC=C(C)C)=C(C)C1=O [Oxidized coenzyme Q10, oxidized coenzyme Q10, reference compound] | skin repair promoting effect | – | – | – | – | – | – | – | – | – | – | – | – | – | –
2 | COc1c(O)c(C)c(C/C=C(\C)CC/C=C(\C)CC/C=C(\C)CC/C=C(\C)CC/C=C(\C)CC/C=C(\C)CC/C=C(\C)CC/C=C(\C)CC/C=C(\C)CCC=C(C)C)c(O)c1OC [Reduced coenzyme Q10, reduced coenzyme Q10] | skin repair promoting effect | (165***) | (414***) | 13.72 ± 0.70 | 12.55 ± 0.51 | (228*) | (317**) | 17.96 ± 4.85 | 15.84 ± 4.56 | (206*) | (239*) | 15.68 ± 3.95 | 12.99 ± 4.81 | very effective in increasing the amount of coenzyme Q10 in skin | very effective in increasing the amount of reduced coenzyme Q10 in skin

Reference: patent US20110070213A1, “DERMAL COMPOSITIONS CONTAINING COENZYME Q AS THE ACTIVE INGREDIENT” (KANEKA CORPORATION, priority 2000, published 2011)
